Key:
[1] = target: T1, maize endosperm ADP-glucose pyrophosphorylase (AGP), wild type (small subunit BT2 WT-STYL, SEQ ID NO: 2, with wild type large subunit Shrunken-2) (Zea mays, UniProt P55241+Q947C0)
T1 sequence (Q947C0 1-475): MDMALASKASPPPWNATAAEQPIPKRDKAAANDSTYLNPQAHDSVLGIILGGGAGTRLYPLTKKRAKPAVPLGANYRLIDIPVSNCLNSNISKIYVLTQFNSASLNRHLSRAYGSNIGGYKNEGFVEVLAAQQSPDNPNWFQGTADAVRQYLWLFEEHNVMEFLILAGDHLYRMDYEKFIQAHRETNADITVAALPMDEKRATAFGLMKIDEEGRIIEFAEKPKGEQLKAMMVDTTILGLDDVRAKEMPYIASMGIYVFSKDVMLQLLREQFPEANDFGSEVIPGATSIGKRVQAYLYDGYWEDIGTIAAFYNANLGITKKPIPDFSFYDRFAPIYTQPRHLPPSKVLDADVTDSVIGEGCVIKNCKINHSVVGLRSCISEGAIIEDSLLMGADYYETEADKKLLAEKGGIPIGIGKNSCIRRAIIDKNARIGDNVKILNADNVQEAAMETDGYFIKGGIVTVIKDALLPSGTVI
T1 sequence (P55241 46-516): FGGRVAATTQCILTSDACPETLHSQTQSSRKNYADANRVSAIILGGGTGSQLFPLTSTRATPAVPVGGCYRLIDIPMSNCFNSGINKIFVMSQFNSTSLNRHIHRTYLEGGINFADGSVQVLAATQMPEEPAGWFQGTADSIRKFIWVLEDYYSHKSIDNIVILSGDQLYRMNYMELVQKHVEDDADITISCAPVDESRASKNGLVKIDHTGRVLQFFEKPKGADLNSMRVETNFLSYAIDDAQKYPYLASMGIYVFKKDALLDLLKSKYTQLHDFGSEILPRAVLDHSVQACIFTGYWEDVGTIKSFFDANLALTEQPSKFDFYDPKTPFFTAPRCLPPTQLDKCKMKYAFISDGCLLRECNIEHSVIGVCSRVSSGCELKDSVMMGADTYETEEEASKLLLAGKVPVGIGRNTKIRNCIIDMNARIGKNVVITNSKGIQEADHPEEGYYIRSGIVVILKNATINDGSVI
Experimental: E. coli strain AC70R1-504, which lacks the functional AGP gene and cannot synthesize glycogen, was transformed with both pMoncSh2 and pMoncBt2 (plasmids containing the large and small subunit of wt-AGP respectively). An overnight culture was grown with constant shaking at 225 rpm at 37° C. in LB media containing 75 ug/ml spectinomycin and 50 μg/ml kanamycin. An aliquot of the overnight culture (12.5 ml) was used to inoculate a 1 L flask containing the same media. The 1 L flask was grown until the OD600 reached 0.5-0.6. The cultures were cooled to room temperature and protein expression was induced by the addition of 0.2 mM isopropyl-beta-D-thiogalactoside (IPTG) and 0.02 mg/ml nalidixic acid. Expression continued for 3 hours at room temperature with constant shaking. Cells were centrifuged at 8000×g supernatant removed and stored as pellets at −80° C.
The 3-Phosphoglyceric acid (3-PGA) was added at varying amounts, as specified. When varied, the substrates ranged from 0-5 mM. Reactions were terminated after 5 minutes by boiling in a water bath for 1 minute. […] The change in absorbance between the blank and the reaction was used to calculate the amount to PPi produced for each sample. All reactions were linear with time and enzyme concentration. All assay tubes were pre-warmed to 37° C. prior to assaying and were initiated by the addition of enzyme. […]

[2] = target: T2, maize endosperm ADP-glucose pyrophosphorylase (AGP) variant QTCL (small subunit BT2 with tyrosine 36 to cysteine and glutamine inserted between serine 34 and th (Zea mays, UniProt P55241+Q947C0, INS34Q/Y36C)); assay: Enzyme kinetics (substrates), forward reaction, purified QTCL AGP; assay type: biochemical
T2 construct: purified heterotetramer
T2 sequence (Q947C0 with tags, fused parts or gaps INS34Q/Y36C): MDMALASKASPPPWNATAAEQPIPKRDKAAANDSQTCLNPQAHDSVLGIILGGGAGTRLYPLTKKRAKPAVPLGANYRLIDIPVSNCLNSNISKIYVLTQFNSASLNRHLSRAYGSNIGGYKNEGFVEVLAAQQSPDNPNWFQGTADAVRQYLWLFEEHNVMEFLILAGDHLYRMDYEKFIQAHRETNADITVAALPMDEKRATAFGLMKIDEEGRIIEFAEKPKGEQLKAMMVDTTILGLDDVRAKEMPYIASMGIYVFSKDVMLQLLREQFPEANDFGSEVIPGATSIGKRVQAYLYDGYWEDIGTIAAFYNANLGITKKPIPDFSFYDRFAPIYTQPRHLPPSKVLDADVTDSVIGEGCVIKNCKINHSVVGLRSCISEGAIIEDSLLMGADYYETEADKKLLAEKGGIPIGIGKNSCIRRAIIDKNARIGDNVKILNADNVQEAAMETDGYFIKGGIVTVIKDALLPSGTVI
T2 sequence (P55241 46-516): T1 sequence (P55241 46-516)
Experimental: The QTCL construct (SEQ ID NO:7) encodes a maize AGP small subunit protein (SEQ ID NO:8) having a change from a tyrosine at amino acid position 36 to a cysteine and an insertion of a glutamine between the serine at amino acid position 34 and the threonine at amino acid position 35. […] The mutations were verified by sequence analysis.
(§1) Protein inductions were as described by Greene and Hannah (1998) with a few modifications.
(§2) The 3-Phosphoglyceric acid (3-PGA) was added at varying amounts, as specified. When varied, the substrates ranged from 0-5 mM. Reactions were terminated after 5 minutes by boiling in a water bath for 1 minute. […] The change in absorbance between the blank and the reaction was used to calculate the amount to PPi produced for each sample. All reactions were linear with time and enzyme concentration. All assay tubes were pre-warmed to 37° C. prior to assaying and were initiated by the addition of enzyme.
The QTCL mutant and wild type enzymes were purified from E. coli as described in the materials and methods.

[3] = target: T2, maize endosperm ADP-glucose pyrophosphorylase (AGP) variant QTCL (small subunit BT2 with tyrosine 36 to cysteine and glutamine inserted between serine 34 and th); assay: Activation and inhibition (Assay C, forward direction), QTCL AGP; assay type: biochemical; settings: QTCL; effector varied 0-3 mM, 37° C., 10 minutes
Experimental: (§3) The QTCL construct (SEQ ID NO:7) encodes a maize AGP small subunit protein (SEQ ID NO:8) having a change from a tyrosine at amino acid position 36 to a cysteine and an insertion of a glutamine between the serine at amino acid position 34 and the threonine at amino acid position 35.
as §2

[4] = test system: maize endosperm ADP-glucose pyrophosphorylase (AGP) variant QTCL (small subunit BT2 with tyrosine 36 to cysteine and glutamine inserted between serine 34 and …); assay: as above; assay type: biochemical, maize (Zea mays); settings: QTCL compared to wild type AGP
Experimental: as §3, §2

[5] = target: T1, maize endosperm ADP-glucose pyrophosphorylase (AGP), wild type (small subunit BT2 WT-STYL, SEQ ID NO: 2, with wild type large subunit Shrunken-2); settings: effector varied 0-3 mM, 37° C., 10 minutes
Experimental: as §1, §2
To determine the extent of activation with or with out 3-PGA, 0.1 or 2.0 μg respectively, of purified maize wt-AGP was incubated for 12.5 minutes in the forward assay. To determine the activation constant for the maize wt AGP, 0.2 μg of purified maize wt-AGP was incubated for 12.5 minutes in the forward assay. 3-PGA concentrations ranged from 0-5.0 mM. Curves were fit using Graph Pad Prism using non-linear regression.

SMILES | Vmax (ATP) ([1]; forward reaction, 10 mM 3-PGA, 37° C., 10 minutes) [µmol/min/mg] | Km ([1]; read-out: Km for ATP, forward reaction, 10 mM 3-PGA, 37° C., 10 minutes) [µM] | Vmax (ATP) ([2]; 10 mM 3-PGA, 37° C., 10 minutes) [µmol/min/mg] | Km ([2]; read-out: Km for ATP, 10 mM 3-PGA, 37° C., 10 minutes) [µM] | Ka (3-PGA) [3] | Ka for the QTCL enzyme, fold higher than wild type AGP [4] | Ka (3-PGA) [5]
Nc1ncnc2c1ncn2[C@@H]1O[C@H](COP(=O)(O)OP(=O)(O)OP(=O)(O)O)[C@@H](O)[C@H]1O [ATP] | 9.25 ± 0.32 | 66 ± 10 | 23.4 ± 0.53 | 140 ± 10 |  |  | 
O=C(O)[C@H](O)COP(=O)(O)O [3-PGA, 3-phosphoglyceric acid] |  |  |  |  | 1.08 ± 0.13 | approximately 2 -fold | 0.57 ± 0.055
